Earlier results on three compounds are cited in US5874104A, “Treatment of systemic fungal infections with phospholipid particles encapsulating polyene antibiotics” (NeXstar Pharmaceuticals, Inc., priority 1995, dated 1999).

The subject of one series is patients. The conditions noted are these: for Toxicity to cells of the patient: human, in vivo.
The conditions of series [1]: saline as suspending solution; Jurgens et al.
A further series has as its system renal tubules. The settings on record: mammals.
A further series concerns host. The conditions noted are these: in vivo.

`C[C@@H]1[C@H](O)[C@@H](C)/C=C/C=C/CC/C=C/C=C/C=C/C=C/C(O[C@H]2O[C@H](C)[C@@H](O)[C@H](N)[C@@H]2O)CC2O[C@](O)(CC(O)C(O)CCC(O)CC(O)CC(O)CC(=O)O[C@H]1C)CC(O)C2C(=O)O` (stereo partly drawn) [nystatin]: the “Toxicity to cells of the patient” value in the series on patients was “acute and chronic toxicity”.
For `C[C@@H]1[C@H](O)[C@@H](C)/C=C/C=C/C=C/C=C/C=C/C=C/C=C/[C@H](O[C@@H]2O[C@H](C)[C@@H](O)[C@H](N)[C@@H]2O)C[C@@H]2O[C@](O)(C[C@@H](O)C[C@@H](O)[C@H](O)CC[C@@H](O)C[C@@H](O)CC(=O)O[C@H]1C)C[C@H](O)[C@H]2C(=O)O` [amphotericin B], the Clinical toxicity entry with patients (at therapeutic dose levels) is “acute hemolytic crisis and eventual kidney failure”. Moreover, in the series with patients, the “Toxicity to cells of the patient” value is “acute and chronic toxicity”. Moreover, the Precipitation in saline result in series [1] is reported as “precipitation”. In addition, in the series with renal tubules, the “Toxicity for membrane systems” value is “greater for certain membrane systems, such as the renal tubules”.
Consider liposomal Amphotericin B, for which the “Host toxicity of liposomal drug” value in the series with host is given as “decreased host toxicity”.
